According to patent US8507464B2, “Phosphoramidate alkylator prodrugs” (Threshold Pharmaceuticals, Inc., priority 2005, dated 2013):
pIC50: −log10 of the molar value. Like-named read-outs stand apart in the source and are kept apart here.

Assays:
[1] = MTD (Table 2B); details: in vivo
[2] = system: DX-5; assay: Anti-proliferation assay, hypoxia vs normoxia (Table 1B)
[3] = Plasma stability (Table 2B); details: 30 min
[4] = system: NCI-H460 cells; assay: Antiproliferation assay (Alamar Blue), anoxia vs air; details: Homo sapiens, NCI-H460, 2 h
[5] = system: mouse (MLM) liver microsomal proteins; format: in vitro ADME; details: for Metabolic stability (MLM) (% at 30 min): Table 2B
[6] = system: HT29 cells; assay: Antiproliferation assay (Alamar Blue), anoxia vs air; details: Homo sapiens, HT-29, 2 h
[7] = system: H460 cell line; assay: Anti-proliferation assay, hypoxia vs normoxia (Table 1A); details: for pIC50: Homo sapiens; for HCR P: ratio of IC50 in normoxia and hypoxia
[8] = system: HT29; assay: Anti-proliferation assay, hypoxia vs normoxia (Table 1B); details: for pIC50: Homo sapiens
[9] = system: MES-SA/Dx5 cells; assay: Antiproliferation assay (Alamar Blue), anoxia vs air; details: Homo sapiens, MES-SA/Dx5, 2 h
[10] = in vivo
[11] = system: NCI-H460 cells; assay: Antiproliferation assay - oxygen dependence; format: cell-based, human; details: Homo sapiens
Source text: . […] The calculated IC50 values (μM) are tabulated in Table Y1 (H460 cells) or Table Y2 (HT29 cells) below.

[12] = system: NCI-H460 cells; assay: Clonogenic assay - oxygen dependence; details: Homo sapiens
[13] = system: H460 cells exposed as monolayers; assay: Clonogenic survival of monolayer cells (Example 35); details: Homo sapiens, NCI-H460, 2 h
[14] = logP (partitioning between octanol and water); format: physicochemical; details: logP
Source text: As used herein “LogP” means a measure of lipophilicity of a substance determined based on the partitioning of the substance betwen octanol and water.

[15] = system: H460 lung carcinoma spheroids; assay: Spheroid model, clonogenic survival; details: Homo sapiens, NCI-H460, 2 h, read-out: IC90 H460 Spheroid 10% O2
[16] = system: MES-SA cells; assay: Antiproliferation assay (Alamar Blue), anoxia vs air; details: Homo sapiens, 2 h
[17] = format: physicochemical; details: glassy carbon, Ag/AgCl reference
[18] = system: NCI H460 xenograft; format: in vivo, mouse; details: day 27, vs vehicle
Source text: Comparisons were made on day 27 because that was the last day of measurements for the vehicle group and those animals were sacrificed.

[19] = in vivo; details: CD-1, mouse, ip, 50 mg/kg
[20] = system: HT29 xenograft; assay: HT-29 human colon carcinoma xenograft mouse model (Example 50); format: in vivo
Procedure: Female CB17/SCID mice (purchased from Charles River, Cambridge, Mass.), 7-8 weeks of age, were allowed to acclimatize for at least three days, and handled under pathogen-free conditions. Human colon carcinoma cell line HT29 was obtained from the American Type Culture Collection. The cell lines were cultured and harvested as described in Example 47 above, and inoculated at 3×10^6 cells/animal in the peritoneal subcutaneous space. […]; in saline) on the days the combination therapy was scheduled; 5FU alone (in saline), or CDDP alone.
In control groups, tumors were implanted in two locations as part of a separate study of effect of location on control group tumor growth. […] The body weight and tumor volume were measured as described in Example 47. Tumor growth inhibition measured on day 25 when vehicle tumors had reached the maximal size and animals in that group were sacrificed is tabulated below.

[21] = system: NCI H460 xenograft; assay: NCI H460 non small cell lung carcinoma xenograft mouse model (Example 48); format: in vivo; details: Group 6: Taxol (q2d × 3)/week × 2 weeks; day 29; vs vehicle
Procedure: Female CB17/SCID mice (purchased from Charles River, Cambridge, Mass.), 7-8 weeks of age, were allowed to acclimatize for at least three days, and handled under pathogen-free conditions. Human […] cell line NCI H460 was obtained from the American Type Culture Collection. The cell lines were cultured and harvested according to the procedure described in Example 47 and inoculated at 1×10^6 cells/animal in the peritoneal subcutaneous space. When the tumors grew to an average volume of 100 mm^3 (day 8), […], as tabulated in the table below: Compound 25 (2.5 mg/ml in 10% PEG; administration route—i.p.) and Taxol (1 mg/ml in 5% EtOH, 5% Cremophor and 90% saline; administration—i.v. 2 h after administration of Compound 25). The body weight and tumor volumes were measured as described in Example 47 above.
Results are presented in Table X2 based on tumor volume measurement on day 29 when vehicle treated mice had reached a volume of 946 mm^3. Groups of 5 mice receiving saline or no treatment were added in order to indicate any vehicle effects but are not used for comparisons in this analysis.

[22] = system: human (HLM) liver microsomal proteins; assay: Metabolic stability in liver microsomal protein; format: in vitro ADME; details: Table 2A, second study, 5 μM
[23] = system: rat (RLM) liver microsomal proteins; assay: Metabolic stability in liver microsomal protein; format: in vitro ADME; details: 5 μM
[24] = read-out: DX-5 P H (proliferation IC50, hypoxia)
[25] = read-out: DX-5 P N (proliferation IC50, normoxic)
[26] = read-out: IC50 H460 Air, air, 2 h exposure
[27] = read-out: IC50 H460 Anoxia, anoxia, 2 h exposure
[28] = NCI-H460, read-out: Hypoxia P (proliferation IC50)
[29] = NCI-H460, read-out: Normoxia P (proliferation IC50)
[30] = HT-29, read-out: HT29 P H (proliferation IC50, hypoxia)
[31] = HT-29, read-out: HT29 P N (proliferation IC50, normoxic)
[32] = read-out: IC50 MES-SA/Dx5 Anoxia

**Q.** Which MTD [1] does the source give for `Cn1c(COP(=O)(N(CCCl)CCCl)N(CCCl)CCCl)cnc1[N+](=O)[O-]` [Compound 6] here?
**A.** 250 mg/kg

**Q.** And the “DX-5 HCR” value [2]?
**A.** >20

**Q.** And the pIC50 [2, 24]?
**A.** 5.30

**Q.** What about the pIC50 [2, 25] of the same compound?
**A.** < 4.00

**Q.** And the “Plasma stability (% at 30 min)” value [3]?
**A.** 60%

**Q.** And the pIC50 [4, 26]?
**A.** < 4.00

**Q.** What about the pIC50 [4, 27] of the same compound?
**A.** 6.15

**Q.** What about the “Metabolic stability (MLM) (% at 30 min)” value [5] of the same compound?
**A.** 0%

**Q.** And the pIC50 ([6]; read-out: IC50 HT29 Air)?
**A.** < 4.00

**Q.** And the pIC50 ([6]; read-out: IC50 HT29 Anoxia)?
**A.** 4.66

**Q.** What about the pIC50 [7, 28] of the same compound?
**A.** 6.15

**Q.** And the pIC50 [7, 29]?
**A.** < 4.00

**Q.** And the “HCR P” value [7]?
**A.** >140

**Q.** What about the “HT29 HCR P” value [8] of the same compound?
**A.** >2

**Q.** And the pIC50 [8, 30]?
**A.** 4.26

**Q.** And the pIC50 [8, 31]?
**A.** < 4.00

**Q.** What about the pIC50 ([9]; read-out: IC50 MES-SA/Dx5 Air) of the same compound?
**A.** < 4.00

**Q.** What about the pIC50 [9, 32] of the same compound?
**A.** 5.30

**Q.** Which results are given for `Cn1c(COP(=O)(N(CCCl)C2CC2)N(CCCl)C2CC2)cnc1[N+](=O)[O-]` [Compound 7]?
**A.** DX-5 HCR [2]: 140; pIC50 [2, 24]: 6.22; pIC50 [2, 25]: 4.08; Plasma stability (% at 30 min) [3]: 85%; pIC50 [4, 26]: 4.60; pIC50 [4, 27]: 6.85; MTD [10]: 250 mg/kg; Metabolic stability (MLM) (% at 30 min) [5]: 0%; pIC50 ([6]; read-out: IC50 HT29 Air): < 4.00; pIC50 ([6]; read-out: IC50 HT29 Anoxia): 5.15; pIC50 [7, 28]: 6.85; pIC50 [7, 29]: 4.60; HCR P [7]: 180; HT29 HCR P [8]: >5; pIC50 [8, 30]: 5.15; pIC50 ([8]; HT-29, read-out: HT29 P H, value in parentheses): 4.00; pIC50 [8, 31]: < 4.00; HT29 HCR P, value in parentheses ([8]; parentheses not explained): (1); pIC50 ([9]; read-out: IC50 MES-SA/Dx5 Air): 4.08; pIC50 [9, 32]: 6.23

**Q.** With `O=[N+]([O-])c1ccc(COP(=O)(NCCBr)NCCBr)o1` [Compound 24] as the compound, how does the pIC50 ([11]; NCI-H460, read-out: IC50 in H460 cells, 0.6% O2) read?
**A.** 6.07

**Q.** And the pIC50 ([11]; NCI-H460, read-out: IC50 in H460 cells, Air)?
**A.** < 6.00

**Q.** And the pIC50 ([11]; NCI-H460, read-out: IC50 in H460 cells, N2)?
**A.** 8.15

**Q.** And the IC90 ([12]; NCI-H460, read-out: IC90 H460 0.6% O2)?
**A.** 250 nM

**Q.** What about the IC90 ([12]; NCI-H460, read-out: IC90 H460 Air) of the same compound?
**A.** 14000 nM

**Q.** And the IC90 ([12]; NCI-H460, read-out: IC90 H460 N2)?
**A.** 70 nM

**Q.** And the IC90 ([13]; read-out: IC90 H460 Monolayer 0.6% O2)?
**A.** 250 nM

**Q.** What about the IC90 ([13]; read-out: IC90 H460 Monolayer Air) of the same compound?
**A.** 4000 nM

**Q.** What about the IC90 ([13]; read-out: IC90 H460 Monolayer N2) of the same compound?
**A.** 70 nM

**Q.** And the pIC50 [4, 26]?
**A.** 5.40

**Q.** What about the pIC50 [4, 27] of the same compound?
**A.** 8.00

**Q.** And the logP [14]?
**A.** < 0

**Q.** What about the IC90 [15] of the same compound?
**A.** 3000 nM

**Q.** What about the pIC50 [7, 28] of the same compound?
**A.** 8.00

**Q.** What about the pIC50 ([7]; NCI-H460, read-out: IC50 in cells under hypoxia) of the same compound?
**A.** 7.30

**Q.** And the pIC50 [7, 29]?
**A.** 5.40

**Q.** And the “fold more toxic in hypoxic cells than in normoxic cells” value ([7]; anti-proliferation cytotoxicity assay)?
**A.** 400 fold

**Q.** What about the “HCR P” value [7] of the same compound?
**A.** 400

**Q.** What about the pIC50 ([16]; read-out: IC50 MES-SA Air) of the same compound?
**A.** 5.70

**Q.** What about the pIC50 ([16]; read-out: IC50 MES-SA Anoxia) of the same compound?
**A.** 7.00

**Q.** What about the “Reduction Potentials, 100 mV/sec” value ([17]; scan rate 100 mV/sec) of the same compound?
**A.** −568 mV

**Q.** What about the “Reduction Potentials, 10,000 mV/sec” value ([17]; scan rate 10,000 mV/sec) of the same compound?
**A.** −636 mV

**Q.** And the pIC50 ([9]; read-out: IC50 MES-SA/Dx5 Air)?
**A.** 6.10

**Q.** What about the pIC50 [9, 32] of the same compound?
**A.** 7.00

**Q.** What about the “% Inhibition vs Group 1” value ([18]; Group 3: Compound 24 3 mg/kg (q1d × 5 d)/week × 3 week) of the same compound?
**A.** 39.9%

**Q.** And the AUC [19]?
**A.** 64000 ng·h/mL

**Q.** And the Cmax [19]?
**A.** 7600 ng/mL

**Q.** What about the Tmax [19] of the same compound?
**A.** 5 min

**Q.** And the half-life [19]?
**A.** 4.1 min

**Q.** What about the “tumor growth inhibition, monotherapy” value [20] of the same compound?
**A.** more than 40%

**Q.** What about the body weight ([20]; during treatment, recovered after end of treatment) of the same compound?
**A.** minor decreases in weights

**Q.** Which “% Inhibition vs Group 2” value [21] does the source give for `CC(=O)O[C@H]1C(=O)[C@@]2(C)[C@H]([C@H](OC(=O)c3ccccc3)[C@]3(O)C[C@H](OC(=O)[C@H](O)[C@@H](NC(=O)c4ccccc4)c4ccccc4)C(C)=C1C3(C)C)[C@]1(OC(C)=O)CO[C@@H]1C[C@@H]2O` [Taxol, paclitaxel, reference compound] here?
**A.** 46%

**Q.** And the “% Inhibition vs Group 1” value ([18]; Group 2: Taxol 10 mg/kg (q2d × 3)/week × 2 week)?
**A.** 36.7%

**Q.** For `C[C@]12CC[C@H]3[C@@H](CCC4=CC(=O)CC[C@@]43C)[C@@H]1CC[C@@H]2O` [Testosterone, reference compound], which “Metabolic stability (% at 30 min) HLM” value [22] is on record?
**A.** 65%

**Q.** What about the “Metabolic stability (% at 30 min) MLM” value ([5]; Table 1, first study, 5 μM) of the same compound?
**A.** 6%

**Q.** And the “Metabolic stability (% at 30 min) RLM” value ([23]; Table 1, first study)?
**A.** 0%

**Q.** And the “Metabolic stability (% at 30 min) RLM” value ([23]; Table 2A, second study)?
**A.** 33%
